According to patent US4469705A, “Saturated leukotriene derivatives as antiallergens” (McNeilab, Inc., priority 1982, dated 1984):

Legend:
[1] = tested on: contraction of guinea pig parenchymal tissue by immunological release of SRS-A; assay: Guinea pig parenchymal strip: inhibition of contraction by immunological release of SRS-A (isolated tissue); format: cell-based; details: Cavia porcellus; egg albumin challenge of sensitized tissue; chlorpheniramine (10^-5 M), indomethacin (10^-4 M); test compound 30 min before challenge
Protocol: (b) Guinea Pig Parenchymal Strip
The guinea pigs were sacrificed and lungs removed. Strips of subpleural parenchyma were prepared from the left and right diaphragmatic lobes and suspended in a tissue bath under 1 gram of tension. After a one hour equilibration period, a dose response to histamine (10^-7 to 10^-4 M) induced contractions was performed to determine maximal contraction. The tissues were then washed and allowed to relax to baseline. Chlorpheniramine (10^-5 M), indomethacin (10^-4 M) and test compound were added 30 minutes prior to challenge with egg albumin. The response to antigen was measured in milligrams of tension.

[2] = tested on: SRS-A induced contraction of guinea pig ileum; assay: Guinea pig ileum: inhibition of SRS-A induced contraction (isolated tissue); format: cell-based; details: Cavia porcellus, atropine and chlorpheniramine (1×10^-5 M) present, test drug 5 min before SRS-A, read-out: G.P. Ileum IC50
Protocol: The tissue is exposed to […] histamine at 1-3 minute intervals until a reproducible response is obtained. Atropine (1×10^-5 M) and chloropheniramine (1×10^-5 M) are added followed by 1-2 biological units of SRS-A. After washing the tissue, the response to BaCl2 (1×10^-3 M) was also noted.

| Compound | IC50 [2] [µM] | IC50 [1] [µM] |
| --- | --- | --- |
| CCCCCCCCCCC[C@@H](SCCC(=O)OC)[C@@H](O)CCCCC(=O)OC (relative stereo) [Example 4, Erythro Methyl 6-Hydroxy-7-{[2-(methoxycarbonyl)ethyl]thio}octadecanoate] |  | 1.1 |
| CCCCCCCCCCC[C@@H](SCCC(=O)OC)[C@H](O)CCCCC(=O)OC (relative stereo) [Example 1, Threo Methyl 6-Hydroxy-7{[2-(methoxycarbonyl)ethyl]thio}octadecanoate] | 1 | > 100 |

Further lines, with some results ahead:

| IC50 [2] [µM] | Compound | IC50 [1] [µM] |
| --- | --- | --- |
| 0.08 | CCCCCCCCCCC[C@@H](SCCC(=O)O)[C@@H](O)CCCCC(=O)O (relative stereo) [Example 5, Erythro 7-(2-Carboxyethyl)thio-6-hydroxyoctadecanoic Acid] | 3.6 |
| 14 | CCCCCCCCCCCC(SC[C@H](N)C(=O)OC)C(O)CCCCC(=O)OC (stereo partly drawn) [Example 3, Threo S-(5-Hydroxy-1-methoxycarbonyl-6-heptadecyl)-L-cysteine Methyl Ester] | > 100 |
| 9 | CCCCCCCCCCC[C@@H](SCCC(=O)O)[C@H](O)CCCCC(=O)O (relative stereo) [Example 2, Threo 7-(2-Carboxyethyl)thio-6-hydroxyoctadecanoic Acid] | 100 |
